Assay results taken from patent US20240216355A1, “PHARMACEUTICAL COMPOSITIONS FOR USE IN THE PREVENTION AND TREATMENT OF A DISEASE OR DISORDER CAUSED BY OR ASSOCIATED WITH ONE OR MORE PREMATURE TERMINATION CODONS” (Monte Rosa Therapeutics, Inc., priority 2021, published 2024).
pIC50: −log10 of the molar value.

The compounds below were run against T1, GSPT1 (Homo sapiens, UniProt P15170+Q96SW2) (assay: GSPT1 degradation immunofluorescence assay in CAL-51 cells). Settings: 6 hours treatment, compounds 1 to 165, read-out: Activity for GSPT1 degradation (DC50 code).
T1 construct: CAL-51 cells were purchased from DSMZ (cat. Number ACC302); host or cells: CAL-51 cells
T1 sequence (P15170 whole entry): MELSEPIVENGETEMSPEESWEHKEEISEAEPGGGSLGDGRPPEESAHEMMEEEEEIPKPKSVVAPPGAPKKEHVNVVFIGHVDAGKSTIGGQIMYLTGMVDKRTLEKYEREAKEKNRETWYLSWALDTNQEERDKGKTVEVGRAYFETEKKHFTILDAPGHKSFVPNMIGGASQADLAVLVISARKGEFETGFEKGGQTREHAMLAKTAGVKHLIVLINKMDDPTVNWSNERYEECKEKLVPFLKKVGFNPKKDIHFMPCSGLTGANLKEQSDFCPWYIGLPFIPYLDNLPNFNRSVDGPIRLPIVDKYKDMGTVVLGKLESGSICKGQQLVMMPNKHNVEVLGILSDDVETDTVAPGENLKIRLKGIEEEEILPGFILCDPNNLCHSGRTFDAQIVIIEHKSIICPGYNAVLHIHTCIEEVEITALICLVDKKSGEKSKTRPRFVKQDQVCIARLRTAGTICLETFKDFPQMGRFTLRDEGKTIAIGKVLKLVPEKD
T1 sequence (Q96SW2 whole entry): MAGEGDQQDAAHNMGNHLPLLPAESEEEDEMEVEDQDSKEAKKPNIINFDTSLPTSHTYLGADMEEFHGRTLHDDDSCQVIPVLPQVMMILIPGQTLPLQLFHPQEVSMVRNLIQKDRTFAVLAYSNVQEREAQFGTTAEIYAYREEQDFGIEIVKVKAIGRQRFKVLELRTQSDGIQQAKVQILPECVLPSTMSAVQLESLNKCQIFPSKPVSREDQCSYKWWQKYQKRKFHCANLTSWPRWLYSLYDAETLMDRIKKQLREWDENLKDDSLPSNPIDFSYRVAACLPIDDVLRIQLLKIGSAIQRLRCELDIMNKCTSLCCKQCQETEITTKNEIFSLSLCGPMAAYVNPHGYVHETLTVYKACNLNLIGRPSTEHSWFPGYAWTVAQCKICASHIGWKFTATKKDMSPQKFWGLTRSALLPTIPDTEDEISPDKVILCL
T1 sequence (Q16531 whole entry partner): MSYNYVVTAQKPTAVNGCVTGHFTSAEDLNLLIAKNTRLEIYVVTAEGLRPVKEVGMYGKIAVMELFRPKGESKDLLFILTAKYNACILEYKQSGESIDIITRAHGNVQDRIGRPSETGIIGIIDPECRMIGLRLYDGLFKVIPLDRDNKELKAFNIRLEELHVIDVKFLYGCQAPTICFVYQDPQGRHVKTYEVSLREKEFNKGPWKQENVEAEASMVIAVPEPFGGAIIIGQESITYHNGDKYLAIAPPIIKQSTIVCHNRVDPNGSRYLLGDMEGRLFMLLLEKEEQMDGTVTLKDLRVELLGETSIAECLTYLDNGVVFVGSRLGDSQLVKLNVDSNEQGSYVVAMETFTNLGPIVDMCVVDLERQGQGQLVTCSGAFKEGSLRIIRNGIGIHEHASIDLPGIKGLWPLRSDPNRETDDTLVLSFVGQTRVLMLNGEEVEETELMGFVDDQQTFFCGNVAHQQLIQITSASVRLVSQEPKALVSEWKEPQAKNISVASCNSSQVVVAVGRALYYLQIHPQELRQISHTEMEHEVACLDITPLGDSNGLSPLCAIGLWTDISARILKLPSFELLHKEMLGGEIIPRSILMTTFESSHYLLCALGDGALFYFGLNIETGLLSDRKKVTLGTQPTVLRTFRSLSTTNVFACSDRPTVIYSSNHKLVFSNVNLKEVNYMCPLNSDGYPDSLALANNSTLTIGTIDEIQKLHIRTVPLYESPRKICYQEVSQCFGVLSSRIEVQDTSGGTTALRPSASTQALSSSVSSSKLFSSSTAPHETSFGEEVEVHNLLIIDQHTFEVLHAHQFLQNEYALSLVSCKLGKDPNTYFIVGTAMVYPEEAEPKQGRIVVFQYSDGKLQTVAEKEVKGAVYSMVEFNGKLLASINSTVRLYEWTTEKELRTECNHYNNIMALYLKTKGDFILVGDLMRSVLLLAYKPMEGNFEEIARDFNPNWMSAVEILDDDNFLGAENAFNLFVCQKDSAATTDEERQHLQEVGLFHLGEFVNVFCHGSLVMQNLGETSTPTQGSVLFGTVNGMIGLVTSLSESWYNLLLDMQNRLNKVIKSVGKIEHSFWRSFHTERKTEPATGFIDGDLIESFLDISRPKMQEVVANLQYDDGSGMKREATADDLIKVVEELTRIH
Type: cell-based
Description: CAL-51 cells were purchased from DSMZ (cat. Number ACC302), sub-cultured in 90% Dulbecco's MEM (4.5 g/L glucose, Gibco 11965)+10% heat inactivated FBS (BioConcept, 2-01F1361) and incubated at 37° C., 5% CO2. For the assay, imaging microtiterplate Cell Carrier 96 Ultra (Perkin Elmer 6055302) were pre-coated with Fibronectin (Sigma F085, 30 μl at 0.2 μg/ml) in PBS (100p, Gibco 14190) for 45 min at room temperature, rinsed with PBS and CAL-51 cells (30K cells/well) were plated and let to adhere overnight. Cells were treated with compounds typically using a serial dilution ranging from 30 μM to 0.1 nM for 6 hours. Compounds were stored at 10 mM DMSO stocks. Vehicle (DMSO), positive (CC-885, 10 μM) and rescue controls (positive control plus 0.2 μM bortezomib) were also included at this stage. Cells were subsequently rinsed with PBS and fixed in 10% Formalin solution (50p, Sigma HT5011)) for 20 mins at room temperature. Following three consecutive PBS washes (100 μl), cells were permeabilized in 0.1% Triton X-100 in PBS (Sigma 93443, 50 μl) for 15 mins at room temperature. Following three further PBS washes, 50 μl blocking buffer (1% BSA, Sigma A4503, in PBS) was added for 45 min for signal-to-noise reduction. Primary antibody (human GSPT1, Sigma HPA052488) was diluted in blocking buffer (dil.1/300, 35 μl/well) and incubated with the cells overnight at 4° C. After three PBS washes, Alexa-fluor 488 coupled secondary antibodies (Invitrogen, A32731, dil. 1/1000), Alexa-fluor 647-Phalloïdin (Invitrogen, A22287, dil. 1/200) and DAPI (Thermo, #62248, dil.1/1000) were diluted in blocking buffer and incubated with the samples for 2 hours at room temperature. After three final PBS washes, samples were conserved in 100 μl PBS in the dark, until measurement. Image acquisition was performed on the Operetta High-Content Imager (Perkin-Elmer). Fluorescence intensity of Alexa-Fluor 488 (GSPT1), Alexa-Fluor 647 (Actin) and DAPI (Nucleus) were measured. For the determination of GSPT1 DC50 values, a custom algorithm implemented in the PerkinElmer image analysis software Harmony-Acapella@ was developed. After user-defined setting of adjustment parameters, the analysis was run identically without human intervention for all image fields. DAPI staining of the nuclei was used to determine the location of cells using standard nuclei detection modules. Segmentation artifacts were removed by threshold-based filters for area, roundness and intensity. The outline of the cells was determined analogously from the sum of the normalized, smoothed DAPI and Actin channel, starting from each nucleus.
The Alexa-Fluor 488 (GSPT1) signal intensity in each cell was finally measured, in order to obtain a Mean intensity per cell. GSPT1 degradation (DC50) was calculated after normalization to controls and data import in CDD vault Database, using non-linear regression.
Compound `Cc1c(Cl)cc(NC(=O)NCc2ccc3c(c2)C(=O)N(C2CCC(=O)NC2=O)C3)cc1CN1CCN2CCC1C2` (stereo not shown) [Compound 154] has a DC50 of over 300 nM.

Same assay, conditions: 6 hours treatment, compounds 201 to 307, read-out: Activity for GSPT1 degradation (DC50 code)
For `O=C1CCC(N2Cc3ccc(COC(=O)Nc4ccc5c(c4)OC(F)(F)O5)cc3C2=O)C(=O)N1` (stereo not shown) [Compound 279], the DC50 was under 30 nM. In the case of `CCc1ncc(NC(=O)OCc2ccc3c(c2)C(=O)N(C2CCC(=O)NC2=O)C3)cc1C` (stereo not shown) [Compound 249], the DC50 was under 30 nM. With `O=C1CCC(N2Cc3ccc(COC(=O)Nc4ccc(F)c(OC(F)(F)F)c4)cc3C2=O)C(=O)N1` (stereo not shown) [Compound 261] the DC50 was under 30 nM. For `CC1CCN(c2ccc(NC(=O)OCc3ccc4c(c3)C(=O)N(C3CCC(=O)NC3=O)C4)cn2)C1` (stereo not shown) [Compound 269], the DC50 was under 30 nM. `O=C1CCC(N2Cc3ccc(COC(=O)Nc4ccc5c(c4)OCCC5)cc3C2=O)C(=O)N1` (stereo not shown) [Compound 292] was tested, and the DC50 was under 30 nM. `CC1CCCN1c1ccc(NC(=O)OCc2ccc3c(c2)C(=O)N(C2CCC(=O)NC2=O)C3)cn1` (stereo not shown) [Compound 274] showed a DC50 of under 30 nM. `Cc1c(Cl)cc(NC(=O)OCc2ccc3c(c2)C(=O)N(C2CCC(=O)NC2=O)C3)cc1OCCN1CCOCC1` (stereo not shown) [Compound 248] gave a DC50 of under 30 nM. For `O=C1CCC(N2Cc3ccc(COC(=O)Nc4cc(CN5CCOCC5)cc(OC(F)F)c4)cc3C2=O)C(=O)N1` (stereo not shown) [Compound 295], the DC50 was under 30 nM. With `COc1cc(NC(=O)OCc2ccc3c(c2)C(=O)N(C2CCC(=O)NC2=O)C3)cnc1-c1ccccc1` (stereo not shown) [Compound 290] the DC50 was under 30 nM. `O=C1CCC(N2Cc3ccc(COC(=O)Nc4cnc(-c5ccccc5)c(F)c4)cc3C2=O)C(=O)N1` (stereo not shown) [Compound 285] showed a DC50 of under 30 nM. `O=C1CCC(N2Cc3ccc(COC(=O)Nc4cc(OCCN5CCOCC5)cc(OC(F)F)c4)cc3C2=O)C(=O)N1` (stereo not shown) [Compound 296] showed a DC50 of under 30 nM. For `CC(C)(C)c1ccc(NC(=O)OCc2ccc3c(c2)C(=O)N(C2CCC(=O)NC2=O)C3)cn1` (stereo not shown) [Compound 243], the DC50 was under 30 nM. In the case of `Cc1c(Cl)cc(NC(=O)OCc2ccc3c(c2)C(=O)N(C2CCC(=O)NC2=O)C3)cc1CN1CC2CCC(C1)O2` (stereo not shown) [Compound 221], the DC50 was under 30 nM. With `COc1cc(C)c(Cl)cc1NC(=O)OCc1ccc2c(c1)C(=O)N(C1CCC(=O)NC1=O)C2` (stereo not shown) [Compound 201] the DC50 was under 30 nM. `O=C1CCC(N2Cc3ccc(COC(=O)Nc4ccc(-c5ccccc5)nc4)cc3C2=O)C(=O)N1` (stereo not shown) [Compound 242] was tested, and the DC50 was under 30 nM. In the case of `O=C1CCC(N2Cc3ccc(COC(=O)Nc4cc(Cl)cc(OC(F)(F)F)c4)cc3C2=O)C(=O)N1` (stereo not shown) [Compound 211], the DC50 was under 30 nM. Compound `O=C1CCC(N2Cc3ccc(COC(=O)Nc4cc(F)cc(OC(F)(F)F)c4)cc3C2=O)C(=O)N1` (stereo not shown) [Compound 257] has a DC50 of under 30 nM. With `O=C1CCC(N2Cc3ccc(COC(=O)Nc4ccc(-c5ccccc5F)nc4)cc3C2=O)C(=O)N1` (stereo not shown) [Compound 284] the DC50 was under 30 nM. With `O=C1CCC(N2Cc3ccc(COC(=O)Nc4cccc(OC(F)F)c4)cc3C2=O)C(=O)N1` (stereo not shown) [Compound 205] the DC50 was under 30 nM. Work on `CC(C)(C)c1ccc(NC(=O)OCc2ccc3c(c2)C(=O)N(C2CCC(=O)NC2=O)C3)cc1` (stereo not shown) [Compound 247] yielded a DC50 of under 30 nM. `CN1CCC(Oc2cc(Cl)cc(NC(=O)OCc3ccc4c(c3)C(=O)N(C3CCC(=O)NC3=O)C4)c2)C1` (stereo not shown) [Compound 246] gave a DC50 of under 30 nM. `Cc1c(CN2CCOCC2)cc(NC(=O)OCc2ccc3c(c2)C(=O)N(C2CCC(=O)NC2=O)C3)cc1OC(F)(F)F` (stereo not shown) [Compound 234] showed a DC50 of under 30 nM. `Cc1ccc(NC(=O)OCc2ccc3c(c2)C(=O)N(C2CCC(=O)NC2=O)C3)cc1Cl` (stereo not shown) [Compound 210] was tested, and the DC50 was under 30 nM. With `O=C1CCC(N2Cc3ccc(COC(=O)Nc4ccc(-c5ccccn5)cc4)cc3C2=O)C(=O)N1` (stereo not shown) [Compound 250] the DC50 was under 30 nM.

The compounds below were run against T2, Full length wild-type cereblon CRBN (Homo sapiens, UniProt Q96SW2) (assay: Fluorescence polarization (FP) assay indicating cereblon binding). Settings: not given.
T2 construct: Full length wild-type cereblon CRBN (80.0 nM, 10 μL) was incubated in assay buffer
T2 sequence (Q96SW2 whole entry): as the sequence (Q96SW2 whole entry) above
Description: Compound activity was monitored in a fluorescence polarization (FP) homogeneous assay using 1-[5-({2-[2-(2-{[2-(2,6-dioxopiperidin-3-yl)-1,3-dioxo-2,3-dihydro-1H-isoindol-4-yl]oxy}acetamido)ethoxy]ethyl}carbamoyl)pentyl]-3,3-dimethyl-2-[(1E,3E)-5-[(2E)-1,3,3-trimethyl-5-sulfo-2,3-dihydro-1H-indol-2-ylidene]penta-1,3-dien-1-yl]-3H-indol-1-ium-5-sulfonate as a fluorescent probe. Unless otherwise stated, all reagents were purchased from Sigma Aldrich. Enzymatic reactions were conducted in Perkin-Elmer Black 384 well ProxiPlate Plus (catalogue no. 6008269) in 10 μL total volume. Full length wild-type cereblon CRBN (80.0 nM, 10 μL) was incubated in assay buffer containing 20 mM HEPES (pH 8.0), […], 0.5 mM TCEP and 0.05% Tween 20 in the presence or absence of compound (300 nL). Inhibitors were stored as 10 mM DMSO stocks in an inert environment (low humidity, dark, low oxygen, room temperature) using the Storage Pod System. Compounds and DMSO were dispensed using the Echo E5XX (Labcyte Inc. USA) to give concentrations from 300 to 0.937 or 3000 to 9.3 nM in a 12 data point curve. […] Following incubation at room temperature for 30 min, the assay was initiated by dispensing the probe to a final concentration of 5 nM (2.5 nL of a 20 μM stock) using the Echo E5XX. FP was measured after a period of 12 hours using a Pherastar plate reader (BMG Labtech, Germany) exciting at 590 nm and measuring the amount of parallel and perpendicular light at 675 nm. The FP signal was subsequently normalized to the no-compound control (i.e., DMSO). Analysis and IC50 values were derived using Dotmatics (Dotmatics UK) software.
Work on `CCOc1cc(NC(=O)OCc2ccc3c(c2)C(=O)N(C2CCC(=O)NC2=O)C3)ccc1C` (stereo not shown) [Compound 233] yielded a pIC50 of over 5.96. `O=C1CCC(N2Cc3ccc(COC(=O)Nc4cc(CN5CC6CC5CO6)cc(OC(F)F)c4)cc3C2=O)C(=O)N1` (stereo not shown) [Compound 300] gave a pIC50 of over 5.96. In the case of `Cc1c(Cl)cc(NC(=O)NCc2ccc3c(c2)C(=O)N(C2CCC(=O)NC2=O)C3)cc1CN1CCN2CCC1C2` (stereo not shown) [Compound 154], the pIC50 was over 5.96. `O=C1CCC(N2Cc3ccc(COC(=O)Nc4cnc(N5CCCCC5)nc4)cc3C2=O)C(=O)N1` (stereo not shown) [Compound 264] gave a pIC50 of over 5.96. `O=C1CCC(N2Cc3ccc(COC(=O)Nc4ccc5c(c4)OCCC5)cc3C2=O)C(=O)N1` (stereo not shown) [Compound 292] showed a pIC50 of over 5.96. `CN(C)C1CN(c2ccc(NC(=O)OCc3ccc4c(c3)C(=O)N(C3CCC(=O)NC3=O)C4)cn2)C1` (stereo not shown) [Compound 289] showed a pIC50 of over 5.96. For `CC(NC(=O)OCc1ccc2c(c1)C(=O)N(C1CCC(=O)NC1=O)C2)c1ccccc1` (stereo not shown) [Compound 302], the pIC50 was over 5.96. `O=C1CCC(N2Cc3ccc(COC(=O)Nc4ccc(N5CCOCC5)nc4)cc3C2=O)C(=O)N1` (stereo not shown) [Compound 276] was tested, and the pIC50 was over 5.96. Work on `O=C1CCC(N2Cc3ccc(COC(=O)Nc4ccc5c(c4)CCCO5)cc3C2=O)C(=O)N1` (stereo not shown) [Compound 267] yielded a pIC50 of over 5.96. `O=C1CCC(N2Cc3ccc(COC(=O)Nc4ccc(C5CCC5)nc4)cc3C2=O)C(=O)N1` (stereo not shown) [Compound 305] gave a pIC50 of over 5.96. For `COc1cc(Cl)ccc1NC(=O)OCc1ccc2c(c1)C(=O)N(C1CCC(=O)NC1=O)C2` (stereo not shown) [Compound 238], the pIC50 was over 5.96. Work on `O=C1CCC(N2Cc3ccc(COC(=O)Nc4cc(OCCN5CCOCC5)cc(OC(F)(F)F)c4)cc3C2=O)C(=O)N1` (stereo not shown) [Compound 306] yielded a pIC50 of over 5.96. `Cc1c(Cl)cc(NC(=O)OCc2ccc3c(c2)C(=O)N(C2CCC(=O)NC2=O)C3)cc1OC1CCNC1` (stereo not shown) [Compound 244] was tested, and the pIC50 was over 5.96. Work on `O=C1CCC(N2Cc3ccc(COC(=O)Nc4ccc5c(c4)OCC5)cc3C2=O)C(=O)N1` (stereo not shown) [Compound 218] yielded a pIC50 of over 5.96. Work on `Cc1c(Cl)cc(NC(=O)OCc2ccc3c(c2)C(=O)N(C2CCC(=O)NC2=O)C3)cc1OCC1CCNC1` (stereo not shown) [Compound 252] yielded a pIC50 of over 5.96. `O=C1CCC(N2Cc3ccc(COC(=O)NCc4ccccc4)cc3C2=O)C(=O)N1` (stereo not shown) [Compound 298] showed a pIC50 of over 5.96. Work on `Cc1cc(NC(=O)OCc2ccc3c(c2)C(=O)N(C2CCC(=O)NC2=O)C3)cc(C)n1` (stereo not shown) [Compound 207] yielded a pIC50 of over 5.96. `COc1cc(NC(=O)OCc2ccc3c(c2)C(=O)N(C2CCC(=O)NC2=O)C3)cnc1C` (stereo not shown) [Compound 251] gave a pIC50 of over 5.96. Compound `O=C1CCC(N2Cc3ccc(COC(=O)Nc4cccc(OC5CC5)c4)cc3C2=O)C(=O)N1` (stereo not shown) [Compound 293] has a pIC50 of over 5.96. In the case of `CC1(c2ccc(NC(=O)OCc3ccc4c(c3)C(=O)N(C3CCC(=O)NC3=O)C4)cc2)COC1` (stereo not shown) [Compound 262], the pIC50 was over 5.96. Compound `O=C1CCC(N2Cc3ccc(COC(=O)NC4CCCC4)cc3C2=O)C(=O)N1` (stereo not shown) [Compound 229] has a pIC50 of over 5.96. In the case of `O=C1CCC(N2Cc3ccc(COC(=O)Nc4cnc(N5CCCCC5)c(F)c4)cc3C2=O)C(=O)N1` (stereo not shown) [Compound 272], the pIC50 was over 5.96. With `O=C1CCC(N2Cc3ccc(COC(=O)Nc4cnc5c(c4)CCC5)cc3C2=O)C(=O)N1` (stereo not shown) [Compound 253] the pIC50 was over 5.96. For `O=C1CCC(N2Cc3ccc(COC(=O)N4CCCC4)cc3C2=O)C(=O)N1` (stereo not shown) [Compound 226], the pIC50 was over 5.96.
